For 11 compounds, IC50 results are on record in patent US20170253562A1, “Nampt Inhibitors” (AbbVie Inc., priority 2011, published 2017).

The experiment deals with recombinant, human, C-terminally-His tagged NAMPT (Homo sapiens, UniProt P43490). Put plainly: Time-Resolved Fluorescence Resonance Energy Transfer (TR-FRET) binding assay of NAMPT. The note with it: 6.8 nM NAMPT, 200 nM probe (Oregon Green 488-conjugated APO866), 2-3 hours. Here is the method: Time-Resolved Fluorescence Resonance Energy Transfer (TR-FRET) Binding Assay of NAMPT
Chain of recombinant, human, C-terminally-His tagged NAMPT (P43490 whole entry): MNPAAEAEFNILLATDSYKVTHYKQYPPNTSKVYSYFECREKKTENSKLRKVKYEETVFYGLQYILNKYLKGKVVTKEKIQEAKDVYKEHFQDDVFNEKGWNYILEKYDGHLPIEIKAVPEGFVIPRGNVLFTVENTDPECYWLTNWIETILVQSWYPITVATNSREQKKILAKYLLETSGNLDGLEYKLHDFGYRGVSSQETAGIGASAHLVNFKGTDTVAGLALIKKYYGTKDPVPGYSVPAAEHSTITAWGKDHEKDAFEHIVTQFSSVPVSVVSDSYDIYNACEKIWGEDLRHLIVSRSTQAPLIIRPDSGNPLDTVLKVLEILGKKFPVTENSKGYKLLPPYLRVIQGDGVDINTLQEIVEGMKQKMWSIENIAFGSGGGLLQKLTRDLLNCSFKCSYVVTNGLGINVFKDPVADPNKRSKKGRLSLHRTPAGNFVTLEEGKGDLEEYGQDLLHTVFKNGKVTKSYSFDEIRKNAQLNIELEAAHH
Plates were read with Envision (Laser Lantha low volume protocol) after 2 to 3 hours.
A general note: In TR-FRET formats the signal depends on donor and acceptor labels being close together.

`O=C(NCc1nnc2n1CCCNC2)c1ccc(NC(=O)N2Cc3ccccc3C2)nn1` [Example 39, N-{6-[(6,7,8,9-tetrahydro-5H-[1,2,4]triazolo[4,3-a][1,4]diazepin-3-ylmethyl)carbamoyl]pyridazin-3-yl}-1,3-dihydro-2H-isoindole-2-carboxamide]: the IC50 (usually the concentration that gives 50% inhibition) is 3260 nM.

Consider `O=C(NCC1CC12CCNCC2)c1ccc(NC(=O)N2Cc3ccccc3C2)nn1` (centres unmarked) [Example 40, N-{6-[(6-azaspiro[2.5]oct-1-ylmethyl)carbamoyl]pyridazin-3-yl}-1,3-dihydro-2H-isoindole-2-carboxamide], for which the IC50 was 648 nM.

In the case of `O=C(Nc1ccc(C(=O)N2CC3(CCCO3)C2)nn1)N1Cc2ccccc2C1` [Example 41, N-[6-(5-oxa-2-azaspiro[3.4]oct-2-ylcarbonyl)pyridazin-3-yl]-1,3-dihydro-2H-isoindole-2-carboxamide], the IC50 worked out at 344 nM.

With `O=C(NCc1nnc2n1CCNC2)c1ccc(NC(=O)N2Cc3ccccc3C2)nn1` [Example 42, N-{6-[(5,6,7,8-tetrahydro[1,2,4]triazolo[4,3-a]pyrazin-3-ylmethyl)carbamoyl]pyridazin-3-yl}-1,3-dihydro-2H-isoindole-2-carboxamide], the half-inhibitory concentration (IC50) was found to be 1970 nM.

Regarding `O=C(NCC1(F)CCNCC1)c1ccc(NC(=O)N2Cc3ccccc3C2)nn1` [Example 43, N-(6-{[(4-fluoropiperidin-4-yl)methyl]carbamoyl}pyridazin-3-yl)-1,3-dihydro-2H-isoindole-2-carboxamide], the concentration for half-maximal inhibition (IC50) stood at 2880 nM.

As for `O=C(Nc1ccc(C(=O)N2CC3(CNC3)C2)nn1)N1Cc2ccccc2C1` [Example 44, N-[6-(2,6-diazaspiro[3.3]hept-2-ylcarbonyl)pyridazin-3-yl]-1,3-dihydro-2H-isoindole-2-carboxamide], the IC50 amounted to 10000 nM.

For the compound `O=C(NCC1CC2(CNC2)CO1)c1ccc(NC(=O)N2Cc3ccccc3C2)nn1` (centres unmarked) [Example 45, N-{6-[(6-oxa-2-azaspiro[3.4]oct-7-ylmethyl)carbamoyl]pyridazin-3-yl}-1,3-dihydro-2H-isoindole-2-carboxamide], the IC50 came out at 2140 nM.

For the compound `O=C(Nc1ccc(C(=O)N2CC3(CCCCO3)C2)nn1)N1Cc2ccccc2C1` [Example 46, N-[6-(5-oxa-2-azaspiro[3.5]non-2-ylcarbonyl)pyridazin-3-yl]-1,3-dihydro-2H-isoindole-2-carboxamide], the concentration for half-maximal inhibition (IC50) worked out at 261 nM.

As to `O=C(Nc1ccc(C(=O)N2CCC3(CCNCC3)C2C(F)(F)F)nn1)N1Cc2ccccc2C1` (centres unmarked) [Example 47, N-(6-{[1-(trifluoromethyl)-2,8-diazaspiro[4.5]dec-2-yl]carbonyl}pyridazin-3-yl)-1,3-dihydro-2H-isoindole-2-carboxamide], the half-maximal inhibitory concentration (IC50) amounted to 5850 nM.

In the case of `O=C(NCC1CC2(CCNCC2)C1)c1ccc(NC(=O)N2Cc3ccccc3C2)nn1` [Example 48, N-{6-[(7-azaspiro[3.5]non-2-ylmethyl)carbamoyl]pyridazin-3-yl}-1,3-dihydro-2H-isoindole-2-carboxamide], the half-maximal inhibitory concentration (IC50) was determined as 68.9 nM.

For `O=C(NCc1nnn2c1CNCCC2)c1ccc(NC(=O)N2Cc3ccccc3C2)nn1` [Example 49, N-{6-[(5,6,7,8-tetrahydro-4H-[1,2,3]triazolo[1,5-a][1,4]diazepin-3-ylmethyl)carbamoyl]pyridazin-3-yl}-1,3-dihydro-2H-isoindole-2-carboxamide], the half-maximal inhibitory concentration (IC50) was 4700 nM.
